Assays:
mAtoh1 = experiment: Induction of mAtoh1 expression in otic spheres (qRT-PCR); format: cell-based, mice; details: 7 days, fold-induction relative to DMSO control, ± SEM
Protocol: Generally, organ of Corti cell isolation is carried out on Day 0, largely by the method in Oshima et al., Methods Mol Biol., 2009; 493: 141-162. Cell culture and propagation are carried out for 3-4 days. Cell plating and test compound treatment takes place on Day 3 or 4. Attachment and differentiation is allowed to take place over the next 7 days. On Days 10 or 11, cell lysis and RNA isolation is carried out. TagMan qRT-PCR is carried out on Day 12 and the results analyzed on Days 13-15 for Atoh1 and Tbp1 expression.
Surrounding tissue from the petrous portion of the temporal bone are removed from 1 to 4 day-old postnatal mice (transgenic strain: mAtoh1-driven nGFP; Lumpkin E A, et al., Gene Expr Patterns, 2003; (36): 389-95 of both sexes. The conch shaped cochlea is separated from the vestibular system using forceps. At this stage of development, the bony labyrinth is not completely calcified and is easily dissected using forceps. Carefully open the bony labyrinth of the cochlea and remove the spiral ligament and attached organ of Corti coiled together along the spiral of the modiolus by unwinding apically from the modiolus. Starting at the base, separate the spiral ligament from the organ of Corti using fine forceps.
Transfer the dissected organ of Corti (OC) into individual 1.5 ml tubes filled with 850 ice cold HBSS. Transfer up to 12 OC tissues into the same tube, Quick-spin down OC tissues and remove the HBSS. Disassociate the cells by adding 100 μl pre-warmed TrypLE™ Select (Life Technologies) and incubate at 37° C. for 13 min. Quick spin down dissociated OC tissues. Remove TrypLE™ Select. Add 100 μl of Medium A (DMEM/F12, N2 supplement (LifeTechnologies), B27 supplement (LifeTechnologies), ampicillin (50 μg/ml) and Fungizone (LifeTechnologies), EGF (20 ng/ml), bFGF (10 ng/ml), IGF-1 50 ng/ml), and heparan sulfate (50 ng/ml)). The dissected and digested tissue is then triturated with a P200 pipette tip. Remove any cell aggregates and debris; transfer the cell suspension and wash through a pre-wetted 70 μm cell strainer to pool the cell suspension in a single fresh culture tube. Rinse dissociation tubes and the cell strainer with sufficient Medium A and pool with the cell suspension. Count cell density with hemocytometer or Countess® (Life Technologies). Add fresh Medium A to cell suspension to achieve a final plating density of 1.0E5 cell/ml and plate into ultra-low attachment cultureware, T-75 (Greiner).
The dissociated, single cells are cultured in an ultra-low attachment cultureware, (Greiner) in Medium A for 3 to 4 days in a 5% CO2 humidified incubator at 37° C. to obtain clonally grown spheres, termed first generation spheres, from the floating cells. If cells stick to the non-adherent dishes during the culture period they can be dislodged by gentle mixing.
After culturing the spheres for 3-4 days, visually count the spheres by microscope to standardize the seeding density of otic spheres per ml for this step. Collect the cells by centrifugation and re-suspend spheres in Basic Medium at a concentration of approximately 2000 spheres per ml. Seed the spheres in a volume of 150 μl per well of a cell culture-treated 96 well plate to obtain approximately 300 spheres per well. Treat the spheres with experimental agents in quadruplicate at a final volume of 200 μl in Basic Medium (DMEM/F12, N2 supplement (LifeTechnologies) B27 supplement (LifeTechnologies), ampicillin (50 μg/ml) and Fungizone (LifeTechnologies). Culture the treated spheres for 7 days in a humidified temperature controlled incubator at 5% CO2, 37° C. Remove medium and proceed with RNA extraction.
Add buffer RLT plus (Qiagen) supplemented with 1% Beta-mercaptoethanol, 175 μl per well. Add 2.5 μl of 4 ng/μl of RNA carrier (RNeasy® Plus Micro Kit; Qiagen) diluted in Buffer RLT Plus into each well before RNA extraction. Total RNA is extracted using the RNeasy® Plus Micro Kit (Qiagen) according to the manufacturer's instructions. […]

HEK293ΔE12 cells = experiment: Relative cytotoxicity profiling (% cell number) in the N1ICD imaging assay; format: cell-based, human; details: up to 1000 nM concentration, 24 hours treatment
Protocol: HEK293ΔE12 cells (HEK293 cells are engineered to stably express mouse Notch1 cDNA coding for amino acid 1703-2183, Np_932740.3, (Full length mouse Notch 1 protein precursor: SEQ ID NO:1) with 23 amino acid signal peptide sequence, […] (SEQ ID NO:2), at its N-terminus) are plated at 5000 cells/well in 96 well plates, incubated in Dulbecco's Modified. Eagle's Medium (DMEM)-high glucose with 5% fetal bovine serum (FBS) at 37° C., 5% CO2 for 24 hours. Cells are treated with test compound, dosing at 10 points of 1:3 dilutions across the range of 1000 nM to 0.05 nM, and with final dimethyl sulfoxide (DMSO) concentration at 0.2%. […] Plates are scanned with ACUMEN EXPLORER™ Laser-scanning fluorescence microplate cytometer (TTP LABTECH LTD) to measure total cell nuclear count/well and total nuclear area/well with fluorescence at 655 nm-705 nm (emission of DNA bound propidium iodide) and fluorescence of antibody binding to N1ICD in nuclear region at 505 nm-530 nm. The main assay output is a ratio of total fluorescence of nuclear N1ICD to total nuclear area, the normalized nuclear N1ICD signal. […] Concentration response and the IC50 are determined by curve fitting to a four parameter logistic for the nuclear N1ICD signal, while the % cell number is plotted in the same graph for cytotoxicity profiling.

SMILES | RQ at 10 nM (Atoh1 expression) (mAtoh1) | RQ at 100 nM (Atoh1 expression) (mAtoh1) | RQ at 1 μM (Atoh1 expression) (mAtoh1) | effect on cell number (cytotoxicity profiling) (HEK293ΔE12 cells)
COc1ccc2c(c1)N1CCC(C)(C)C1=CC(=O)C2NC(=O)[C@H](C)NC(=O)CCC(F)(F)F (single isomer, unassigned) [Compound 1, Isomer 2] | 1.43 ± 0.17 | 1.76 ± 0.17 | 1.64 ± 0.13 | Neither compound affects cell number
C[C@H](NC(=O)CCC(F)(F)F)C(=O)NC1C(=O)C=C2N(CCC2(C)C)c2ncccc21 (single isomer, unassigned) [Compound 2, Isomer 2] | 1.14 ± 0.07 | 1.21 ± 0.13 | 1.57 ± 0.11 | Neither compound affects cell number
